Measured values from US11234960B2, “Compositions and methods for improving mitochondrial function and treating neurodegenerative diseases and cognitive disorders” (Amazentis SA, priority 2010, dated 2022).

Assays:
PC-12 cells = test: Neurite outgrowth in NGF-differentiated PC-12 cells; assay type: cell-based, rat; conditions: 0.5 μM; for percent of cells showing significant outgrowth (>20 μm), increase vs differentiated cells: 72 h (FIG. 8); for number of processes, increase: 72 h, differentiated PC-12 cells (FIG. 9)
Procedure: The ellagitannins and their metabolites tested in the assays were synthesized or purchased from suppliers which included Funakoshi, Sigma, and Chemos. Stock solutions were aliquoted and stored at −20° C.
PC-12 cells (ATCC CRL-1721) were cultured at 37° C., 5% CO2 in poly L-lysine-coated culture flasks in complete culture medium (RPMI 1640+10% heat-inactivated horse serum+5% fetal bovine serum).
Cell differentiation was performed in culture flasks 24 h after plating, in complete medium supplemented with 100 ng/mL NGF (2.5 S NGF, Invitrogen). The NGF-supplemented medium was renewed every third day, and differentiation was induced over an 8-day period.
All compounds to be tested were prepared just before the experiment as a 50 mM stock solution in dimethylsulfoxide (DMSO). The final DMSO concentration was 0.1% in the medium of all experimental groups.
For neurite outgrowth measurements, differentiated cells were washed with phosphate-buffered saline (PBS), collected after detachment and replated at a density of 5,000 cells/well (biocoat imaging 96 well plate) in complete medium supplemented with 100 ng/mL NGF, with or without 10 μM SP600125 (negative control), 1 mM dbcAMP (positive control), or tested compound at 5×10^−7 M. In the undifferentiated control group, no NGF was added after replating.
After 72 h in culture, PC-12 cells were washed with PBS and fixed in 1% paraformaldehyde solution for 20 minutes. After 3 washes with PBS, immunofluorescence labeling was performed with Texas Red Maleimide probe, which reacts with thiol groups of cysteine residues of proteins, permitting the visualization of the entire cell morphology, including neurites.
Immunofluorescence analysis was performed in automated confocal microscopy. Images were acquired with a BD pathway 855 system, under X20 objective with 8×8 field montage. Neurite outgrowth was then measured from acquired images with the neurite module of Metamorph® software. Total and mean outgrowth, total and mean number of processes per cell, and total and percentage of cells with extensive outgrowth (defined as outgrowth longer than 20 μm) were analyzed.

normal mice = test: Contextual fear conditioning (contextual memory) in normal mice; assay type: in vivo; conditions: punicalagin approx. 90 mg/kg/day 3 months; for contextual memory, freezing 24 hours after training: urolithin A approx. 55 mg/kg/day 2.5 months (FIG. 46); for memory retention, extinction of contextual memory over days 1-5: urolithin A approx. 55 mg/kg/day 2.5 months (FIG. 47)
Procedure: Beginning at 3 months of age, mice were either fed (i) a standard control diet such as AIN-93G; (ii) a diet containing punicalagin at a concentration of […], so as to deliver an approximate dose of 90 mg/kg/day (for a period of 3 months); or (iii) a diet containing urolithin A at a concentration of […], so as to deliver an approximate dose of 55 mg/kg/day (for a period of 2.5 months). Actual doses vary slightly depending on the food consumption of each individual mouse, as well as the weight of the mouse. Behavioral assessment of cognition was measured after this period.
To examine the effect of pomegranate-derived compounds on memory and cognition, mice were examined for improvements in contextual memory utilizing the contextual fear conditioning assay. Mice were trained in a fear conditioning chamber as described in Example 19.
During training, animals were placed into the chamber one at a time. After four minutes of exploration inside the chamber, one foot shock (2 seconds and 0.4 mA) was administered, followed by a second foot shock (2 seconds and 0.4 mA) one minute later. Thirty seconds after the second foot shock, the mouse was placed back into its home cage.
One day later, trained animals were returned to the chamber for a period of three minutes. During this period mice were monitored for their movement. The amount of time spent immobile or “frozen” was scored as a percentage of the total time (3 minutes) under observation. The time spent immobile is a measure of the strength of the memory of the mice to recall the context in which they were trained.
To determine the effect of these pomegranate-derived compounds on memory retention, normal mice fed either (i) a control diet; (ii) punicalagin (for a period of 3 months) or (iii) urolithin A (for a period of 2.5 months) were studied for their memory recall on days 1, 2, 3, 4 and 5 after the initial contextual fear training.
Animals were placed in the same chamber and context for 3 min daily (same time of day, however no shock this time) for the 5 days that followed the initial testing. Freezing behavior induced by the simple contextual recognition by the animals of the chamber, where they received the initial shock, was measured during each of these daily 3-minute periods. The ability to recognize this environment in the absence of the stimulus is a measurement of contextual memory.

[1] = tested on: high fat diet (HFD)-fed C57BL6/J mice; test: Body weight and body composition (EchoMRI) in high-fat diet fed mice; assay type: in vivo; conditions: for body weight gain: HFD-fed mice vs control HFD-fed mice, PE 140 mkd polyphenols gavage (FIG. 17A); for body weight gain / percentage fat mass (EchoMRI): urolithin A 55 mkd food admix, punicalagin 90 mkd gavage; for percentage of lean mass (EchoMRI) / percentage fat mass (EchoMRI): HFD-fed mice; for percentage of lean mass (EchoMRI): 5 weeks of treatment (FIG. 17C); for percentage fat mass (EchoMRI): 5 weeks of treatment, PE 140 mkd gavage (FIG. 17B)
From the text: Male C57BL6/J mice were purchased from Charles River Laboratory (L'Arbresle, France) at the age of 7 weeks and acclimatized to the animal facility for 2 weeks before initiation of experiments. Mice were housed in groups of 5 in standard housing conditions, with a 12 hr light-dark cycle and free access to food and water. Beginning at 9 weeks of age, mice were fed a high-fat diet (HFD) (60% kcal from fat; D12492; Research Diets Inc., New Brunswick, N.J., USA) for fourteen weeks. Body weight was monitored weekly.
Mice in different treatment groups were administered (i) urolithin A mixed with food (food admix) to reach a dosing of 55 mg/kg body weight/day (mkd); (ii) ellagic acid mixed with food (food admix) to reach a dosing of 75 mkd; (iii) punicalagin (gavage) to reach a dosing of 90 mkd; or (iv) pomegranate extract (PE) (gavage) to reach a dosing of 140 mkd of total polyphenols. A typical pomegranate extract used in these experiments had the following composition: polyphenols, 140 mkd; punicalagin, 13.1 mkd; and ellagic acid, 13.2 mkd. For animals treated by gavage, gavage was performed daily (7 days/week) between 8:00 and 10:00 a.m.; compounds were mixed with saline solution (0.9% NaCl) and provided at a final volume of 5 mL/kg of body weight. Mice in high-fat control groups were fed with the same diet as the experimental animals. Mice in corresponding different control groups were administered either high-fat diet alone or high-fat diet plus daily gavage with vehicle (saline). Another control group of mice were fed standard chow diet alone.
Body composition was monitored by EchoMRI (Echo Medical Systems, Houston, Tex., USA) 5 weeks after the initiation of the treatment for high-fat diet fed mice and 2 weeks after the initiation of the treatment for chow diet fed mice. Animals were placed individually into a plastic cylinder and then introduced into an EchoMRI system for about 2 min for body composition scanning (lean and fat mass).

[2] = tested on: AMP-activated protein kinase (AMPK); test: AMPK phosphorylation (Western blot) in C2C12 myotubes; assay type: cell-based; conditions: 1 hr, 50 μM, relative to control treated cells (FIG. 5A)
Procedure: C2C12 myoblasts were differentiated to myotubes by serum deprivation for 4 days (Canto et al. (2009) Nature. 458:1056-60). Myotubes were incubated for 1 hr with resveratrol (RSV), which served as a positive control, or ellagic acid (EA) or urolithin A (UL) at a final concentration of 50 μM (all dissolved in DMSO, final concentration 0.1%). DMSO was used as a control (final concentration of DMSO: 0.1%). At the end of the treatment, cells were washed 3 times with PBS, and AMP-activated protein kinase (AMPK) was assessed by Western blot. Following compound treatment, C2C12 cells were lysed in buffer containing phosphatase inhibitors, and protein concentration was determined using a standard Bradford assay. The equivalent of 25 μg of protein was used for separation on a 10% SDS-PAGE gel and subsequently transferred by standard Western blotting procedures. Antibodies directed to AMPK (Cell Signaling) and phosphorylated AMPK (P-AMPK, Cell Signaling) were used for detection.

| Compound | percent of cells showing significant outgrowth (>20 μm), increase vs differentiated cells (PC-12 cells) [%] | number of processes, increase (PC-12 cells) [%] | contextual memory, freezing 24 hours after training (normal mice) | memory retention, extinction of contextual memory over days 1-5 (normal mice) | body weight gain [1] | percentage of lean mass (EchoMRI) [1] | percentage fat mass (EchoMRI) [1] | levels of phosphorylation of AMPK (P-AMPK) [2] |
| --- | --- | --- | --- | --- | --- | --- | --- | --- |
| O=C1O[C@H]2[C@@H]3OC(=O)c4cc(O)c(O)c(O)c4-c4c(O)c(O)c5oc(=O)c6c(c(O)c(O)c7oc(=O)c4c5c76)-c4c(cc(O)c(O)c4O)C(=O)OC[C@H]3OC(O)[C@@H]2OC(=O)c2cc(O)c(O)c(O)c2-c2c1cc(O)c(O)c2O (mixture of isomers) [punicalagin, 2,3 hexahydroxydiphenoyl-4,6-gallagylglucose] | > 26 | 26.3 | significant improvements in contextual memory | improved memory retention | strong reduction of body weight gain | statistically significant increase in the percentage of lean mass | significantly reduced | – |
| O=c1oc2c(O)c(O)cc3c(=O)oc4c(O)c(O)cc1c4c23 [ellagic acid] | – | – | – | – | – | – | – | increased |
| O=c1oc2cc(O)ccc2c2ccc(O)cc12 [urolithin A, 3,8-Dihydroxydibenzo-α-pyrone] | 26 | 15.7 | significant improvements in contextual memory | improved memory retention | strong reduction of body weight gain | statistically significant increase in the percentage of lean mass | significantly reduced | increased |
